From patent US11203753B2, “Hepcidin antagonists for use in the treatment of inflammation” (INSERM (INSTITUT NATIONAL DE LA SANTE ET DE LA RECHERCHE …, priority 2015, dated 2021)

Experiments:
[1] = system: NF-kB pathway; assay: Hepcidin-induced expression of CXCL1 and TNF-α in macrophages with pathway inhibitors; format: cell-based, mouse
Description: Moreover, MyD88, a canonical adaptor for inflammatory signaling pathway, but not TLR4, was required for the hepcidin-triggered induction of CXCL1 and TNF-α. Indeed, macrophages isolated from TLR4−/− but not MyD88−/− mice were still able to mount an inflammatory response after addition of hepcidin.

[2] = system: Caco-2 intestinal cell line; assay: Addition of synthetic mature hepcidin to Caco-2 intestinal cell line; format: cell-based; settings: basolateral or apical side
[3] = system: Raw 264.7 (ATCC TIB-71) murine macrophage cell line; assay: CXCL2 and TNF-α expression (Q-PCR) in serum starved Raw 264.7 macrophages with Hepc-25; format: cell-based
Protocol: FIG. 9: Serum starvation enhances the proinflammatory action of Hepc-25 in macrophages. Expression by Q-PCR of CXCL2 and TNF-α in Raw 264.7 (ATCC® TIB-71™) murine macrophage cell line serum starved or not for 1 hour before the addition of 10 μg/ml of Hepc-25 (Peptide International) for an additional hour. N=3 per group; mean+/−s.e.m. Statistical analysis by a two-way analysis of variance (ANOVA) followed by a Bonferroni posttest. **p<0.01; ***p<0.001.
Expression by Q-PCR of CXCL2 in Raw 264.7 (ATCC® TIB-71™) murine macrophage cell line serum starved for 1 hour or not before the addition of 1 or 10 μg/ml of Hepc-25 (Peptide International) for an additional hour. N=3 per group; mean+/−s.e.m. Statistical analysis by a two-way analysis of variance (ANOVA) followed by a Bonferroni posttest. **p<0.01; ****p<0.0001.

[4] = system: macrophages; assay: Inflammatory gene expression (Q-PCR) in macrophages incubated with hepcidin-25; format: cell-based, mouse
Protocol: a, Flow cytometry analysis of neutrophils in lamina propria of WT and KO mice. Left: Representative experiment with Ly6G^+ Ly6C^low cells shown after gating on CD45^+CD11b^+ cells; Right: pool of four experiments (mean+/−s.e.m; *p<0.05). b, Migration of WT bone marrow isolated neutrophils in response to hepcidin-25. (3 experiments performed in triplicate; mean+/−s.e.m; *p<0.05). c, CXCL1, CXCL2, IL-1beta, iNOS mRNA levels in macrophages incubated for 1 or 3 hours with 1 μg/ml, 10 μg/ml Hepcidin-25 or PBS (control). d, Immunohistochemistry using anti-mouse iNOS antibody on intestine of WT and Hepc^Δint mice upon PBS or LPS injection.
The gastrointestinal tract contains the largest reservoir of macrophages in the organism^17. Besides its proper chemoattractant property, the inventors hypothesized that hepcidin may influence the production of chemokines by the macrophages. Macrophages were incubated with hepcidin-25 at different time points (30 min, 1 h, 3 h, 24 h, 48 h).
(§1) RNA extraction, reverse transcription, quantitative PCR and sequences of the primers used have been previously described^8. All samples were normalized to the threshold cycle value for cyclophilin-A.

[5] = system: WT bone marrow isolated neutrophils; assay: Neutrophil migration assay (transwell) towards hepcidin; format: cell-based, mouse
Protocol: Bone marrows from WT mice were flushed from femurs and tibias with PBS using a 25 G needle. Tissues were homogenized through a 18 G needle and the suspension was passed through 70 μm and 40 μm cell strainers. Cells were centrifuged at 400 g for 10 min and resuspended in cold MACS buffer (PBS, BSA 0.5%, EDTA 2 mM, pH 7.4). After counting, cells were incubated on ice with FcBlock™ for 10 min, anti-Ly6C for 15 min and anti-biotin antibody microbeads for 15 min, following the manufacturer's instructions. Cells were washed with MACS buffer and centrifuged at 400 g for 10 min. Neutrophils were immuno-magnetically separated following filtration of the cell suspension through an LS column (Miltenyi) according to manufacturer's instructions.
(§2) Neutrophil migration was assessed using transwell (3 μm; BD-Falcon) coated with 10 μg/ml fibronectin (# F1141, Sigma-Aldrich). The cells (5×10^5/well) were diluted in 700 μL DMEM+10% SVF and migration towards hepcidin (Peptide International) in the bottom well was allowed for 2 hours at 37° C. The resulting migrated cells recovered from the bottom well were counted using hemocytometer.

[6] = system: macrophages; assay: CXCL1 and TNF-α protein accumulation by macrophages following hepcidin treatment; format: cell-based, mouse; settings: at 7 hours
Protocol: Kinetic response of macrophage-derived CXCL1 and TNF-α following hepcidin treatment was further determined. […] Massive protein accumulation of CXCL1 and TNF-α reached respectively 300 and 150 pg/ml at 7 hours (Data not shown). Hepcidin stimulated IL-1beta, IL-6 and iNOS expression with a maximal induction at 3 hours with 10 μg/ml hepcidin (FIG. 2c) while the peak of TNF-alpha and Cox-2 expression occurred after 1 hour of hepcidin treatment. AMPs, such as LL37, typically function in this high concentration range^18,19 to induce proinflammatory molecules^20,21. This allows the production of inflammatory mediators in pathological conditions where AMPs concentrations can reach high values^18,19 and not in healthy tissues where inflammatory damage might otherwise harm host cells.

[7] = system: hepcidin expression; assay: Hepcidin expression (Q-PCR) in mouse intestine and liver 7 h after ip injection of TLR agonists; format: in vivo; settings: WT mice
Protocol: Mice were ip injected with LPS (from E. coli O111:B4; 2 mg/kg), Zymosan A (from Saccharomyces cerevisiae, Sigma-Aldrich Z4250; 250 mg/kg), Poly:IC (Polyinosinic-polycytidylic acid sodium salt, Sigma-Aldrich P0913; 12.5 mg/kg), Flagellin (FLA-ST from Salmonella Typhimirium, InvivoGen, #12B06-MM; 1.5 mg/kg) or with a sterile saline solution (PBS) and sacrificed 7 hours later.
as §1

[8] = target: T1, Cxcr2 (Mus musculus, UniProt P35343); assay: Neutrophil migration towards hepcidin in presence of Cxcr2 inhibitor; format: cell-based; settings: hepcidin 1 μg/ml
T1 construct: Migration of WT bone marrow isolated neutrophils in response to hepcidin (1 μg/ml); endogenous in cells; host or cells: primary neutrophils isolated from bone marrow of WT mice (mixed C57BL6/129SV background)
T1 sequence (P35343 1-359): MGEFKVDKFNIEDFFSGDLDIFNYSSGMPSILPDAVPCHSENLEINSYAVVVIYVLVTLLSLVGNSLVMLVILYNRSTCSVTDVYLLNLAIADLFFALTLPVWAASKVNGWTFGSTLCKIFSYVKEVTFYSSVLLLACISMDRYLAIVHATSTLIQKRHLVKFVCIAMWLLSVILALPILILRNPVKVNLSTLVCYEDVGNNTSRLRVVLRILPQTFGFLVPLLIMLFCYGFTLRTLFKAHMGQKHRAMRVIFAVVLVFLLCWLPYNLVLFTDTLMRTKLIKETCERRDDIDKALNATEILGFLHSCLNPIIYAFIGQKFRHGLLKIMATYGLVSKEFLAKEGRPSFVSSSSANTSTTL
Protocol: Migration of WT bone marrow isolated neutrophils in response to hepcidin (1 μg/ml) in presence or not of the Cxcr2 inhibitor (sb225002, Sigma-Aldrich). n=3. mean+/−s.e.m.
as §2

Molecule: CC(C)(C)c1ccc(S(=O)(=O)/C=C/C#N)cc1 [BAY 7085]
- hepcidin-induced expression of CXCL1 and TNF-α [1]: strongly blunted

Molecule: hepcidin: synthetic mature 25 amino acid hepcidin peptide (Peptide International)
- iNOS expression [2]: did not induce
- expression of Cxcl2 ([3]; 1 μg/ml, serum starvation 1 hour, 1 additional hour): robust expression
- stimulatory effect on macrophage-mediated cytokine release ([3]; serum-free conditions versus not starved): clearly enhanced
- expression of the iron-responsive gene TfR1 [4]: unchanged
- time of peak of TNF-alpha and Cox-2 expression [4]: 1 h
- time of peak of transient CXCL1 and TNF-α mRNA induction [4]: 1 h
- expression of CXCL-1 and CXCL2 ([4]; 1 μg/ml hepcidin, 1 hour): slightly increased
- time of maximal induction of IL-1beta, IL-6 and iNOS expression ([4]; 10 μg/ml hepcidin): 3 h
- expression of CXCL-1 and CXCL2 ([4]; 10 μg/ml hepcidin, 1 hour): maximally induced
- fold change of genes statistically induced (TNF-α, CXCL1, CXCL2, NF-kappa-B inhibitor zeta, Mir-146) ([4]; 1 hour): > 2
- migration of neutrophils ([5]; bimodal dose response): induced a dose-dependent migration of neutrophils
- dose of peak response of neutrophil migration ([5]; migration 2 hours at 37° C.): 0.1 µg/mL
- CXCL1 protein accumulation [6]: 300 pg/mL
- TNF-α protein accumulation [6]: 150 pg/mL

Molecule: Polyinosinic-polycytidylic acid sodium salt [poly:IC]
- hepcidin expression in the intestine [7]: induced

Molecule: Cc1ccc(S(=O)(=O)/C=C/C#N)cc1 [BAY 7082]
- hepcidin-induced expression of CXCL1 and TNF-α [1]: strongly blunted

Molecule: O=C(Nc1ccc([N+](=O)[O-])cc1O)Nc1ccccc1Br [sb225002]
- neutrophil migration towards hepcidin [8]: prevents neutrophil migration

B1: flagellin: FLA-ST from Salmonella Typhimirium, agonist of TLR5 (protein, UniProt P06179 2-495, looked up)
Flagellin: AQVINTNSLSLLTQNNLNKSQSALGTAIERLSSGLRINSAKDDAAGQAIANRFTANIKGLTQASRNANDGISIAQTTEGALNEINNNLQRVRELAVQSANSTNSQSDLDSIQAEITQRLNEIDRVSGQTQFNGVKVLAQDNTLTIQVGANDGETIDIDLKQINSQTLGLDTLNVQQKYKVSDTAATVTGYADTTIALDNSTFKASATGLGGTDQKIDGDLKFDDTTGKYYAKVTVTGGTGKDGYYEVSVDKTNGEVTLAGGATSPLTGGLPATATEDVKNVQVANADLTEAKAALTAAGVTGTASVVKMSYTDNNGKTIDGGLAVKVGDDYYSATQNKDGSISINTTKYTADDGTSKTALNKLGGADGKTEVVSIGGKTYAASKAEGHNFKAQPDLAEAAATTTENPLQKIDAALAQVDTLRSDLGAVQNRFNSAITNLGNTVNNLTSARSRIEDSDYATEVSNMSRAQILQQAGTSVLAQANQVPQNVLSLLR
- hepcidin expression in the intestine [7]: induced
